Columns and labels:
Assay type in all cases: in vivo
[1] = test system: rice (Oryra sativa); assay: Test B flooded paddy test; settings: Oryza sativa, 360 h, Flood, 250 g ai/ha; visually evaluated after 13 to 15 d; read-out: Plant response rating, Rice (0 to 100 scale where 0 is no effect and 100 is complete control)
Method in brief: (§1)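 Greenhouse paddy pots with 2-leaf stage plants received compound by direct addition to floodwater 3 cm deep, kept at that level. Scored visually at 13–15 d versus controls (0 no effect; 100 complete control).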

[2] = test system: barnyardgrass (Echinochloa crus-galli); assay: Test B flooded paddy test; settings: Echinochloa crus-galli, 360 h, Flood, 250 g ai/ha; visually evaluated after 13 to 15 d; read-out: Plant response rating, Barnyardgrass (0 to 100 scale where 0 is no effect and 100 is complete control)
Method in brief: as §1

[3] = test system: sedge, umbrella (small-flower umbrella sedge, Cyperus difformis); assay: Test B flooded paddy test; settings: Cyperus difformis, 360 h, Flood, 250 g ai/ha; visually evaluated after 13 to 15 d; read-out: Plant response rating, Sedge, Umbrella (0 to 100 scale where 0 is no effect and 100 is complete control)
Method in brief: as §1

[4] = test system: ducksalad (Heteranthera limosa); assay: Test B flooded paddy test; settings: Heteranthera limosa, 360 h, Flood, 250 g ai/ha; visually evaluated after 13 to 15 d; read-out: Plant response rating, Ducksalad (0 to 100 scale where 0 is no effect and 100 is complete control)
Method in brief: as §1

[5] = test system: ragweed (common ragweed, Ambrosia elatior); assay: Test A preemergence; settings: Ambrosia artemisiifolia, pre-emergence, 240 h, Preemergence
Method in brief: (§2)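 Compounds were formulated in a non-phytotoxic solvent mixture with surfactant and applied as a preemergence directed soil spray after seeding, or sprayed postemergence over plants 2 to 10 cm tall at the one- to two-leaf stage. Evaluation after about 10 d compared treated with untreated controls, using a scale from 0 (no effect) to 100 (complete control).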

[6] = test system: barnyardgrass (Echinochloa crus-galli); assay: Test A preemergence; settings: Echinochloa crus-galli, pre-emergence, 240 h, Preemergence
Method in brief: as §2

[7] = test system: ryegrass, Italian (Italian ryegrass, Lolium multiflorum); assay: Test A preemergence; settings: Lolium multiflorum, pre-emergence, 240 h, Preemergence
Method in brief: as §2

[8] = test system: Kochia (Kochia scoparia); assay: Test A preemergence; settings: Bassia scoparia, pre-emergence, 240 h, Preemergence
Method in brief: as §2

[9] = test system: pigweed (Amaranthus retroflexus); assay: Test A preemergence; settings: Amaranthus retroflexus, pre-emergence, 240 h, Preemergence
[10] = test system: giant foxtail (Setaria faberii); assay: Test A preemergence; settings: Setaria faberi, pre-emergence, 240 h, Preemergence
Method in brief: as §2

[11] = test system: blackgrass (Alopecurus myosuroides); assay: Test A postemergence; settings: Alopecurus myosuroides, post-emergence, 240 h, Postemergence, read-out: Blackgrass plant response rating (0 to 100 scale)
Method in brief: as §2

[12] = test system: wheat (Triticum aestivum); assay: Test A postemergence; settings: Triticum aestivum, post-emergence, 240 h, Postemergence, read-out: Wheat plant response rating (0 to 100 scale)
Method in brief: as §2

[13] = test system: ragweed (common ragweed, Ambrosia elatior); assay: Test A postemergence; settings: Ambrosia artemisiifolia, post-emergence, 240 h, Postemergence, read-out: Ragweed plant response rating (0 to 100 scale)
Method in brief: as §2

[14] = test system: barnyardgrass (Echinochloa crus-galli); assay: Test A postemergence; settings: Echinochloa crus-galli, post-emergence, 240 h, Postemergence
Method in brief: as §2

[15] = test system: ryegrass, Italian (Italian ryegrass, Lolium multiflorum); assay: Test A postemergence; settings: Lolium multiflorum, post-emergence, 240 h, Postemergence, read-out: Ryegrass, Italian plant response rating (0 to 100 scale)
Method in brief: as §2

[16] = test system: corn (Zea mays); assay: Test A postemergence; settings: Zea mays, post-emergence, 240 h, Postemergence, read-out: Corn plant response rating (0 to 100 scale)
Method in brief: as §2

[17] = test system: Kochia (Kochia scoparia); assay: Test A postemergence; settings: Bassia scoparia, post-emergence, 240 h, Postemergence, read-out: Kochia plant response rating (0 to 100 scale)
Method in brief: as §2

[18] = test system: pigweed (Amaranthus retroflexus); assay: Test A postemergence; settings: Amaranthus retroflexus, post-emergence, 240 h, Postemergence, read-out: Pigweed plant response rating (0 to 100 scale)
Method in brief: as §2

[19] = test system: giant foxtail (Setaria faberii); assay: Test A postemergence; settings: Setaria faberi, post-emergence, 240 h, Postemergence, read-out: Foxtail, Giant plant response rating (0 to 100 scale)
Method in brief: as §2

[20] = 125 g ai/ha, visual rating about 10 d after treatment
[21] = 31 g ai/ha, 0 is no effect, 100 is complete control

## CN1C[C@H](c2ccc3c(c2)OC(F)(F)O3)[C@@H](C(=O)Nc2cccnc2F)C1=O [Compound 1346]
[1]
  pest or weed control at 250 g/ha: 0%
[2]
  pest or weed control at 250 g/ha: 90%
[3]
  pest or weed control at 250 g/ha: 0%
[4]
  pest or weed control at 250 g/ha: 90%
[5]; 31 g ai/ha, 0 to 100 scale where 0 is no effect and 100 is complete control, read-out: Ragweed plant response rating
  pest or weed control at 31 g/ha: 0%
[5]; 125 g ai/ha, 0 to 100 scale (0 no effect, 100 complete control), read-out: Plant response rating, Ragweed
  pest or weed control at 125 g/ha: 90%
[6]; 31 g ai/ha, 0 to 100 scale where 0 is no effect and 100 is complete control, read-out: Barnyardgrass plant response rating
  pest or weed control at 31 g/ha: 40%
[6]; 125 g ai/ha, 0 to 100 scale (0 no effect, 100 complete control), read-out: Plant response rating, Barnyardgrass
  pest or weed control at 125 g/ha: 90%
[7]; 31 g ai/ha, 0 to 100 scale where 0 is no effect and 100 is complete control, read-out: Ryegrass, Italian plant response rating
  pest or weed control at 31 g/ha: 10%
[7]; 125 g ai/ha, 0 to 100 scale (0 no effect, 100 complete control), read-out: Plant response rating, Ryegrass, Italian
  pest or weed control at 125 g/ha: 30%
[8]; 31 g ai/ha, 0 to 100 scale where 0 is no effect and 100 is complete control, read-out: Kochia plant response rating
  pest or weed control at 31 g/ha: 10%
[8]; 125 g ai/ha, 0 to 100 scale (0 no effect, 100 complete control), read-out: Plant response rating, Kochia
  pest or weed control at 125 g/ha: 80%
[9]; 31 g ai/ha, 0 to 100 scale where 0 is no effect and 100 is complete control, read-out: Pigweed plant response rating
  pest or weed control at 31 g/ha: 80%
[9]; 125 g ai/ha, 0 to 100 scale (0 no effect, 100 complete control), read-out: Plant response rating, Pigweed
  pest or weed control at 125 g/ha: 90%
[10]; 31 g ai/ha, 0 to 100 scale where 0 is no effect and 100 is complete control, read-out: Foxtail, Giant plant response rating
  pest or weed control at 31 g/ha: 90%
[10]; 125 g ai/ha, 0 to 100 scale (0 no effect, 100 complete control), read-out: Plant response rating, Foxtail, Giant
  pest or weed control at 125 g/ha: 100%
[11]; [20]
  pest or weed control at 125 g/ha: 20%
[11]; [21]
  pest or weed control at 31 g/ha: 30%
[12]; [20]
  plant injury at 125 g/ha: 60%
[12]; [21]
  plant injury at 31 g/ha: 30%
[13]; [20]
  pest or weed control at 125 g/ha: 0%
[13]; [21]
  pest or weed control at 31 g/ha: 0%
[14]; 125 g ai/ha, visual rating about 10 d after treatment, read-out: Barnyardgrass plant response rating (0 to 100 scale, 0 no effect, 100 complete control)
  pest or weed control at 125 g/ha: 80%
[14]; 31 g ai/ha, 0 is no effect, 100 is complete control, read-out: Barnyardgrass plant response rating (0 to 100 scale)
  pest or weed control at 31 g/ha: 60%
[15]; [20]
  pest or weed control at 125 g/ha: 20%
[15]; [21]
  pest or weed control at 31 g/ha: 0%
[16]; [20]
  plant injury at 125 g/ha: 40%
[16]; [21]
  plant injury at 31 g/ha: 0%
[17]; [20]
  pest or weed control at 125 g/ha: 30%
[17]; [21]
  pest or weed control at 31 g/ha: 0%
[18]; [20]
  pest or weed control at 125 g/ha: 20%
[18]; [21]
  pest or weed control at 31 g/ha: 0%
[19]; [20]
  pest or weed control at 125 g/ha: 90%
[19]; [21]
  pest or weed control at 31 g/ha: 60%

From US12077503B2, “Substituted cyclic amides and their use as herbicides” (FMC CORPORATION, priority 2015, dated 2024)
